Data taken from patent publication US5519016A, “Aryl group- or aromatic heterocyclic group-substituted aminoquinolone derivatives and anti-HIV agent” (priority 1992, dated 1996).
Converted amounts (≈) assume the structure as drawn. Counter-ions that a name gives are not always drawn. Like-named read-outs stand apart in the source and are kept apart here.

Experiments:
HIV [1] = test: microbe, parasite or virus in culture; type: cell-based; conditions: for S.I. (selective index, CC50 /EC50): CC50 = 50% growth inhibition of non-infected cells, 7200 min; for EC50: Human immunodeficiency virus 1, MT4, 120 h, 50% CPE inhibition in HIV infected MT-4 cells, 5 days, 37° C.
Source text: Exponentially growing MT-4 cells were centrifuged, and the pellets were resuspended in RPMI-1640 medium containing 10% fetal serum (serum medium). Portions of the cell suspension were either inoculated with HIV, or left uninfected. Serum medium was then further added to the suspensions, which were then washed and centrifuged. The resulting pellets were then suspended in serum medium to a concentration of 4×10^5 cells/mi. Preparations of the test compound (in serum medium) were […] in a stepwise manner, and 100 μl of each of the solutions were placed in separated wells of a 96-well plastic microtitre plate. 100 μl of each of the cell suspensions (infected and non-infected) were then added to the wells, so that each dilution of each of the test compounds was tested against both infected and noninfected cells. Blanks (not added either of the cells) were also prepared. The preparations were then cultured by standing the plate at 37° C. for 5 days in the presence of 5 % carbon dioxide gas.
At the end of this time, living cells were assayed for CPE inhibitory activity by the spectrophotometric assay of the blue formazan produced by the reduction of MTT [3-(4,5-dimethylthiazol-2-yl) -2,5-diphenyl-tetrazolium bromide]which was added to the preparations.
CPE inhibitory activity was defined as 100% in non-infected cells to which no test compounds had been added, while CPE inhibitory activity was defined as 0% in infected cells to which test compounds had not been added.

HIV [2] = conditions: literature / WO-A-90-13542; cited from earlier work

SMILES	anti-HIV activity (in words) (HIV [1]; Pauwel method)	anti-HIV activity (reported) (HIV [2])	S.I. (selective index, CC50 /EC50) (HIV [1])	EC50 (HIV [1])	anti-HIV activity (in words) (HIV [1])
CCn1cc(C(=O)O)c(=O)c2cc(F)c(N3CCNC(C)C3)c(F)c21 (stereo not drawn) [Lomefloxacin, reference compound]	little or no anti-HIV activity	anti-HIV activity	–	–	–
CC1COc2c(N3CCN(c4ccccn4)CC3)c(F)cc3c(=O)c(C(=O)O)cn1c23 (stereo not drawn) [Example 85]	–	–	17	1 µg/mL (≈ 2.36 µM)	–
CC1Sc2c(C(=O)O)c(=O)c3cc(F)c(N4CCN(c5ncccn5)CC4)cc3n21 (stereo not drawn) [Example 100, 6-fluoro-1-methyl-4-oxo-7-[4-(2-pyrimidinyl)piperazin-1-yl]-1H, 4H-[1,3]thiazeto[3,2-a]quinoline-3-carboxylic acid]	–	–	9	0.4 µg/mL (≈ 0.936 µM)	–
NC1CCN(c2nc3c(cc2F)c(=O)c(C(=O)O)cn3-c2ccc(F)cc2F)C1 (stereo not drawn) [Tosufloxacin, reference compound]	little or no anti-HIV activity	anti-HIV activity	–	–	–
COc1cccc(N2CCN(c3c(F)cc4c(=O)c(C(=O)O)cn(C5CC5)c4c3OC(F)F)CC2)c1 [Example 7]	–	–	113	0.22 µg/mL (≈ 0.437 µM)	–
COc1ccccc1N1CCN(c2c(F)cc3c(=O)c(C(=O)O)cn(CCF)c3c2OC)CC1 [Example 70]	–	–	20	0.5 µg/mL (≈ 1.06 µM)	–
CCn1cc(C(=O)O)c(=O)c2cc(F)c(N3CCN(c4cnccn4)CC3)c(OC(F)F)c21 [Example 37]	–	–	> 109	0.23 µg/mL (≈ 0.496 µM)	–
Cn1cc(C(=O)O)c(=O)c2cc(F)c(N3CCN(c4ncccn4)CC3)c(OC(F)F)c21 [Example 24, 6-fluoro-8-difluoromethoxy-1-methyl-7-[4-(2-pyrimidinyl)piperazin-1-yl]-1,4-dihydro-4-oxoquinoline-3-carboxylic acid]	–	–	257	0.07 µg/mL (≈ 0.156 µM)	–
CCn1cc(C(=O)O)c(=O)c2cc(F)c(N3CCN(c4ncccn4)CC3)nc21 [Example 92]	–	–	31	0.8 µg/mL (≈ 2.01 µM)	–
O=C(O)c1cn(C2CC2)c2c(OC(F)F)c(N3CCN(c4ncccc4[N+](=O)[O-])CC3)c(F)cc2c1=O [Example 17]	–	–	250	0.5 µg/mL (≈ 0.963 µM)	–
O=C(O)c1cn(C2CC2)c2c(OC(F)F)c(N3CCN(c4nc5ccccc5o4)CC3)c(F)cc2c1=O [Example 21]	–	–	16	0.037 µg/mL (≈ 0.0719 µM)	–
O=C(O)c1cn(C2CC2)c2c(OC(F)F)c(N3CCN(c4ccccc4)CC3)c(F)cc2c1=O [Example 2, 1-cyclopropyl-6-fluoro-8-difluoromethoxy-7-(4-phenylpiperazin-1-yl)-1,4-dihydro-4-oxoquinoline-3-carboxylic acid]	–	–	100	0.03 µg/mL (≈ 0.0634 µM)	–
CCn1cc(C(=O)O)c(=O)c2cc(F)c(N3CCN(c4ccccc4OC)CC3)c(OC(F)F)c21 [Example 63, 1-ethyl-6-fluoro-8-difluoromethoxy-7-[4-(2-methoxyphenyl)piperazin-1-yl]-1,4-dihydro-4-oxoquinoline-3carboxylic acid]	–	–	1000	0.01 µg/mL (≈ 0.0203 µM)	–
CC(C)(C)n1cc(C(=O)O)c(=O)c2cc(F)c(N3CCN(c4ncccn4)CC3)cc21 [Example 95]	–	–	> 62	0.4 µg/mL (≈ 0.94 µM)	–
CCn1cc(C(=O)O)c(=O)c2cc(F)c(N3CCN(c4ncccn4)CC3)c(OC(F)F)c21 [Example 67, 1-ethyl-6-fluoro-8-difluoromethoxy-7-[4-(2-pyrimidinyl)piperazin-1-yl]-1,4-dihydro-4-oxoquinoline-3-carboxylic acid]	–	–	> 500	0.08 µg/mL (≈ 0.173 µM)	–
CNn1cc(C(=O)O)c(=O)c2cc(F)c(N3CCN(c4ncccn4)CC3)c(OC(F)F)c21 [Example 53]	–	–	> 83	0.3 µg/mL (≈ 0.646 µM)	–
COc1ccccc1N1CCN(c2c(F)cc3c(=O)c(C(=O)O)cn(CCF)c3c2OC(F)F)CC1 [Example 38]	–	–	79	0.07 µg/mL (≈ 0.137 µM)	–

SMILES	anti-HIV activity (in words) (HIV [1]; Pauwel method)	anti-HIV activity (reported) (HIV [2])	S.I. (selective index, CC50 /EC50) (HIV [1])	EC50 (HIV [1])	anti-HIV activity (in words) (HIV [1])
CN1CCN(c2cc3c(cc2F)c(=O)c(C(=O)O)cn3-c2ccc(F)cc2)CC1 [Difloxacin, reference compound]	little or no anti-HIV activity	anti-HIV activity	–	–	–
COc1ccccc1N1CCN(c2c(F)c(N)c3c(=O)c(C(=O)O)cn(C(C)C)c3c2OC(F)F)CC1 [Example 29]	–	–	22	0.05 µg/mL (≈ 0.0961 µM)	–
CCn1cc(C(=O)O)c(=O)c2ccc(N3CCN(c4ncccn4)CC3)c(OC(F)F)c21 [Example 99, 1-ethyl-8-difluoromethoxy-7-[4-(2-pyrimidinyl)piperazin-1-yl]-1,4-dihydro-4-oxoquinoline-3-carboxylic acid]	–	–	> 25	1 µg/mL (≈ 2.25 µM)	–
COc1ccccc1N1CCN(c2c(F)cc3c(=O)c(C(=O)O)cn(C4CC4)c3c2OC(F)F)CC1 [Example 1, 1-cyclopropyl-6-fluoro-8-difluoromethoxy-7-[4-(2-methoxyphenyl)piperazin-1-yl]-1,4-dihydro-4-oxoquinoline-3-carboxylic acid.hydrochloride]	–	–	400	0.015 µg/mL	–
O=C(O)c1cn(C2CC2)c2c(OC(F)F)c(N3CCN(c4ccc(F)cc4)CC3)c(F)cc2c1=O [Example 6]	–	–	34	0.02 µg/mL (≈ 0.0407 µM)	–
C[C@H]1COc2c(N3CCN(C)CC3)c(F)cc3c(=O)c(C(=O)O)cn1c23 [DR-3355, reference compound]	have failed	Anti-HIV activity has recently been reported	–	–	–
O=C(O)c1cn2c3c(c(N4CCN(c5ncccn5)CC4)c(F)cc3c1=O)OCC2CF (stereo not drawn) [Example 87, 9-fluoro-3-fluoromethyl-10-[4-(2-pyrimidinyl)piperazin-1yl]-2,3-dihydro-7-oxo-7H -pyrido[1,2,3-de][1,4]benzoxazine-6-carboxylic acid]	–	–	> 512	0.074 µg/mL (≈ 0.167 µM)	–
CCn1cc(C(=O)O)c(=O)c2cc(F)c(N3CCN(c4ncccn4)C(C)C3)c(OC(F)F)c21 (stereo not drawn) [Example 94, 1-ethyl-6-fluoro-8-difluoromethoxy-7-[3-methyl-4-(2-pyrimidinyl)piperazin-1-yl]-1,4-dihydro-4-oxoquinoline-3-carboxylic acid]	–	–	21	0.5 µg/mL (≈ 1.05 µM)	–
O=C(O)c1cn(C2CC2)c2c(OC(F)F)c(N3CCN(c4ncc(Cl)cn4)CC3)c(F)cc2c1=O [Example 19]	–	–	57	0.07 µg/mL (≈ 0.137 µM)	–
O=C(O)c1cn(C2CC2)c2cc(N3CCNCC3)c(F)cc2c1=O [Ciprofloxacin, reference compound]	–	anti-HIV activity	–	–	little or no anti-HIV activity
CCn1cc(C(=O)O)c(=O)c2cc(F)c(N3CCNCC3)nc21 [Enoxacin, reference compound]	little or no anti-HIV activity	anti-HIV activity	–	–	–
O=C(O)c1cn(C2CC2)c2c(OC(F)F)c(N3CCN(c4ncccn4)CC3)c(F)cc2c1=O [Example 18, 1-cyclopropyl-6-fluoro-8-difluoromethoxy-7-[4-(2-pyrimidinyl)piperazin-1-yl]-1,4-dihydro-4-oxoquinoline-3-carboxylic acid]	–	–	121	0.07 µg/mL (≈ 0.147 µM)	–
CCn1cc(C(=O)O)c(=O)c2cc(F)c(N3CCNCC3)cc21 [Norfloxacin, reference compound]	little or no anti-HIV activity	anti-HIV activity	–	–	–
COc1ccccc1N1CCN(c2c(F)cc3c(=O)c(C(=O)O)cn(C)c3c2OC(F)F)CC1 [Example 23, 6-fluoro-8-difluoromethoxy-1-methyl-7-[4-(2-methoxyphenyl)piperazin-1-yl]-1,4-dihydro-4-oxoquinoline-3-carboxylic acid]	–	–	309	0.021 µg/mL (≈ 0.044 µM)	–
COc1ccc(N2CCN(c3c(F)cc4c(=O)c(C(=O)O)cn(C5CC5)c4c3OC(F)F)CC2)cc1 [Example 8, 1-cyclopropyl-6-fluoro-8-difluoromethoxy-7-[4-(4-methoxyphenyl)piperazin-1-yl]-1,4-dihydro-4-oxoquinoline-3carboxylic acid]	–	–	500	0.1 µg/mL (≈ 0.199 µM)	–
COc1ccccc1N1CCN(c2c(F)cc3c(=O)c(C(=O)O)cn(CCOC(C)=O)c3c2OC(F)F)CC1 [Example 46, 1-(2-acetoxyethyl)-6-fluoro-8-difluoromethoxy-7-[4-(2-methoxyphenyl)piperazin-1-yl]-1,4-dihydro-4-oxoquinoline-3-carboxylic acid]	–	–	155	0.06 µg/mL (≈ 0.109 µM)	–
